According to US6737383B1, “Herbicidal oxadiazolidines” (priority 1999, dated 2004):

Experiments:
[1] = system: bedstraw; test: Test B pre/postemergence bedstraw; type: in vivo, Galium aparine; conditions: Postemergence, Rate 62 g/ha; scale 0 to 10, 0 is no effect, 10 is complete control
In short: (§1)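 Test chemicals in a non-phytotoxic solvent mixture with surfactant were sprayed preemergence onto planted seeds and postemergence onto plants 2 to 18 cm tall (1- to 4-leaf stage). After twelve to sixteen days in a greenhouse, injury was visually rated against untreated controls from 0 (no effect) to 10 (complete control).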

[2] = system: blackgrass; test: Test B pre/postemergence blackgrass; type: in vivo, Alopecurus myosuroides
In short: as §1

[3] = system: surinam grass; test: Test B pre/postemergence surinam grass; type: in vivo, Brachiaria decumbens
In short: as §1

[4] = system: cocklebur; test: Test B pre/postemergence cocklebur; type: in vivo, Xanthium strumarium
In short: as §1

[5] = system: corn; test: Test B pre/postemergence corn; type: in vivo, Zea mays
In short: as §1

[6] = system: giant foxtail; test: Test B pre/postemergence giant foxtail; type: in vivo, Setaria faberii
In short: as §1

[7] = system: morningglory; test: Test B pre/postemergence morningglory; type: in vivo, Ipomoea hederacea
In short: as §1

[8] = system: pigweed; test: Test B pre/postemergence pigweed; type: in vivo, Amaranthus retroflexus
In short: as §1

[9] = system: rape; test: Test B pre/postemergence rape; type: in vivo, Brassica napus
In short: as §1

[10] = system: soybean; test: Test B pre/postemergence soybean; type: in vivo, Glycine max
In short: as §1

[11] = system: sugar beet; test: Test B pre/postemergence sugar beet; type: in vivo, Beta vulgaris
In short: as §1

[12] = system: velvetleaf; test: Test B pre/postemergence velvetleaf; type: in vivo, Abutilon theophrasti
In short: as §1

[13] = system: wheat; test: Test B pre/postemergence wheat; type: in vivo, Triticum aestivum
In short: as §1

[14] = system: wild oat; test: Test B pre/postemergence wild oat; type: in vivo, Avena fatua
In short: as §1

[15] = system: rice; test: Test B flood test rice; type: in vivo, Oryza sativa
In short: (§2)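 Read-out is a visual response score from 0 (no effect) to 10 (complete control), assigned by comparison with untreated controls. Treatment was applied at the 2-leaf stage, and plants stayed in the greenhouse for twelve to sixteen days before scoring.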

[16] = system: smallflower flatsedge; test: Test B flood test smallflower flatsedge; type: in vivo, Cyperus difformis
In short: as §2

[17] = Postemergence, Rate 62 g/ha, scale 0 to 10, 0 is no effect, 10 is complete control
[18] = Postemergence, Rate 125 g/ha, scale of 0 to 10 where 0 is no effect and 10 is complete control
[19] = Postemergence, Rate 250 g/ha, scale of 0 to 10, 0 is no effect, 10 is complete control
[20] = Preemergence, Rate 62 g/ha, scale of 0 to 10 where 0 is no effect and 10 is complete control
[21] = Preemergence, Rate 125 g/ha, scale of 0 to 10 where 0 is no effect and 10 is complete control
[22] = Preemergence, Rate 250 g/ha, scale 0 to 10 (0 no effect, 10 complete control)
[23] = Preemergence, Rate 500 g/ha, scale of 0 to 10 where 0 is no effect and 10 is complete control
[24] = Rate 500 g/ha, Postemergence, scale 0 to 10, 0 is no effect, 10 is complete control
[25] = Rate 62 g/ha, flood test species, Pre-emergence, visual evaluation after twelve to sixteen days
[26] = Rate 125 g/ha, under heading Pre-emergence, flood test species, visual evaluation after twelve to sixteen days
[27] = Rate 250 g/ha, Pre-emergence (flood test species), scale 0 to 10, 0 is no effect, 10 is complete control
[28] = Rate 500 g/ha, Pre-emergence section of Table B, 0 to 10 scale (0 no effect, 10 complete control)

CC[C@@H](C)n1c(=O)on(C(=O)N(c2ccc(F)cc2F)C(C)C)c1=O [Compound 667]
Plant response rating, Bedstraw [1]: 0 | Plant response rating, Blackgrass [2, 17]: 6 | Blackgrass plant response rating [2, 18]: 8 | Blackgrass plant response rating [2, 19]: 8 | Blackgrass plant response rating [2, 20]: 8 | Blackgrass plant response rating [2, 21]: 8 | Plant response rating, Blackgrass [2, 22]: 8 | Plant response rating, Blackgrass [2, 23]: 10 | Blackgrass plant response rating [2, 24]: 8 | Plant response rating, B. signalgrass [3, 17]: 0 | Plant response rating, B. signalgrass [3, 18]: 4 | B. signalgrass plant response rating [3, 19]: 6 | B. signalgrass plant response rating [3, 20]: 3 | B. signalgrass plant response rating [3, 21]: 5 | Plant response rating, B. signalgrass [3, 22]: 8 | Plant response rating, B. signalgrass [3, 23]: 8 | B. signalgrass plant response rating [3, 24]: 7 | Plant response rating, Cocklebur [4, 17]: 2 | Cocklebur plant response rating [4, 18]: 3 | Cocklebur plant response rating [4, 19]: 4 | Cocklebur plant response rating [4, 20]: 0 | Cocklebur plant response rating [4, 21]: 0 | Plant response rating, Cocklebur [4, 22]: 0 | Plant response rating, Cocklebur [4, 23]: 0 | Cocklebur plant response rating [4, 24]: 5 | Plant response rating, Corn [5, 17]: 4 | Corn plant response rating [5, 18]: 4 | Corn plant response rating [5, 19]: 4 | Corn plant response rating [5, 20]: 0 | Corn plant response rating [5, 21]: 4 | Plant response rating, Corn [5, 22]: 7 | Plant response rating, Corn [5, 23]: 10 | Corn plant response rating [5, 24]: 5 | Plant response rating, Giant foxtail [6, 17]: 5 | Giant foxtail plant response rating [6, 18]: 9 | Giant foxtail plant response rating [6, 19]: 9 | Giant foxtail plant response rating [6, 20]: 10 | Giant foxtail plant response rating [6, 21]: 10 | Plant response rating, Giant foxtail [6, 22]: 10 | Plant response rating, Giant foxtail [6, 23]: 10 | Giant foxtail plant response rating [6, 24]: 9 | Plant response rating, Morningglory [7, 17]: 2 | Morningglory plant response rating [7, 18]: 2 | Morningglory plant response rating [7, 19]: 4 | Morningglory plant response rating [7, 20]: 0 | Morningglory plant response rating [7, 21]: 1 | Plant response rating, Morningglory [7, 22]: 3 | Plant response rating, Morningglory [7, 23]: 6 | Morningglory plant response rating [7, 24]: 6 | Plant response rating, Redroot pigweed [8, 17]: 2 | Redroot pigweed plant response rating [8, 18]: 5 | Redroot pigweed plant response rating [8, 20]: 10 | Redroot pigweed plant response rating [8, 21]: 10 | Plant response rating, Redroot pigweed [8, 22]: 10 | Plant response rating, Redroot pigweed [8, 23]: 10 | Redroot pigweed plant response rating [8, 24]: 7 | Plant response rating, Rape [9, 17]: 0 | Rape plant response rating [9, 18]: 4 | Rape plant response rating [9, 20]: 7 | Rape plant response rating [9, 21]: 8 | Plant response rating, Rape [9, 22]: 10 | Plant response rating, Rape [9, 23]: 10 | Rape plant response rating [9, 24]: 6 | Plant response rating, Soybean [10, 17]: 2 | Soybean plant response rating [10, 18]: 3 | Soybean plant response rating [10, 20]: 0 | Soybean plant response rating [10, 21]: 3 | Plant response rating, Soybean [10, 22]: 6 | Plant response rating, Soybean [10, 23]: 7 | Plant response rating, Sugarbeets [11, 17]: 0 | Sugarbeets plant response rating [11, 18]: 0 | Sugarbeets plant response rating [11, 20]: 5 | Sugarbeets plant response rating [11, 21]: 7 | Plant response rating, Sugarbeets [11, 22]: 8 | Plant response rating, Sugarbeets [11, 23]: 10 | Sugarbeets plant response rating [11, 24]: 3 | Plant response rating, Velvetleaf [12, 17]: 5 | Velvetleaf plant response rating [12, 18]: 6 | Velvetleaf plant response rating [12, 20]: 6 | Velvetleaf plant response rating [12, 21]: 6 | Plant response rating, Velvetleaf [12, 22]: 8 | Plant response rating, Velvetleaf [12, 23]: 10 | Velvetleaf plant response rating [12, 24]: 8 | Plant response rating, Wheat [13, 17]: 0 | Wheat plant response rating [13, 18]: 0 | Wheat plant response rating [13, 20]: 2 | Wheat plant response rating [13, 21]: 2 | Plant response rating, Wheat [13, 22]: 5 | Plant response rating, Wheat [13, 23]: 6 | Wheat plant response rating [13, 24]: 5 | Plant response rating, Wild oats [14, 17]: 0 | Wild oats plant response rating [14, 18]: 4 | Wild oats plant response rating [14, 20]: 4 | Wild oats plant response rating [14, 21]: 8 | Plant response rating, Wild oats [14, 22]: 8 | Plant response rating, Wild oats [14, 23]: 10 | Wild oats plant response rating [14, 24]: 6 | Plant response rating, Rice (0 to 10 scale, 0 is no effect, 10 is complete control) [15, 25]: 0 | Rice plant response rating (0 to 10 scale, 0 is no effect, 10 is complete control) [15, 26]: 0 | Rice plant response rating [15, 27]: 0 | Rice plant response rating [15, 28]: 0 | Plant response rating, S. Flatsedge (0 to 10 scale, 0 is no effect, 10 is complete control) [16, 25]: 0 | S. Flatsedge plant response rating (0 to 10 scale, 0 is no effect, 10 is complete control) [16, 26]: 0 | S. Flatsedge plant response rating [16, 27]: 0 | S. Flatsedge plant response rating [16, 28]: 0
